# Test results reported in patent US10604473B2, “Lipids that increase insulin sensitivity and methods of using the same” (Beth Israel Deaconess Medical Center, Inc., priority 2013, dated 2020).
# What was measured:
# STC-1 cells [1] = assay: Calcium flux (FURA2) in STC-1 cells; format: cell-based; conditions: 100 uM, no extracellular Ca2+
# Description: For the experiments summarized in FIG. 39 the method is: Cells grown on collagen coated glass slides were preloaded with the calcium indicator, FURA2, for 60 minutes. Buffer containing either FAHFAs or vehicle was incubated with cells for a period of 3 minutes followed by washout with buffer alone. FURA2 fluorescence, an indicator of Calcium mobilization, was monitored continuously before and during the addition of compounds and throughout the washout period. Results were analyzed with metamorph software. Calcium Flux in STC-1 (intestinal enteroendocrine) cells in the absence of extracellular calcium (calcium free buffer). Ligands were injected after 3 minutes and washed out after an additional 3 minutes. The data presented is the average fold change in Fura2 fluorescence for 10 individual STC-1 cells in the same field.
# DMSO control had no effect. Top panel is linoleic acid, a positive control. Middle panel 9-PAHSA (100 uM). Bottom panel 5-PAHSA (100 μM). These experiments were done in the absence of extracellular calcium.
# 3T3-L1 adipocytes = assay: Glucose transport in 3T3-L1 adipocytes; format: cell-based
# Description: FIGS. 54A-D show glucose uptake regulation by PAHSAs and Glut4 translocation via GPR120. FIG. 54A is a bar graph showing insulin-stimulated glucose transport in 3T3-L1 adipocytes treated 9-PAHSA (20 μM) or vehicle (DMSO) control for 6 days. n=6 per group, *p<0.05 compared to vehicle by t-test. FIG. 54B is a bar graph showing insulin (10 nM)-stimulated glucose transport in 3T3-L1 adipocytes transfected with control siRNA or GPR120 siRNA and treated 5-PAHSA (10 μM), 9-PAHSA (10 μM) or vehicle (DMSO) control for 2 days. n=3 per group, *p<0.05 compared to DMSO+control siRNA or GPR120 siRNA alone, $p<0.05 compared to control siRNA or GPR120 siRNA+insulin and GPR120 siRNA+insulin+PAHSA by t-test. FIG. 54C is a panel showing Glut4 plasma membrane translocation in 3T3-L1 adipocytes transfected with control siRNA or GPR120 siRNA and treated with 9-PAHSA in the presence or absence of insulin. 6 separate experiments were carried out without RNAi and 3 experiments with RNAi; each experiment had greater than 50 cells per experimental condition. FIG. 54D is a bar graph showing quantification of Glut4 translocation in panel C. *p<0.05 compared to control siRNA+insulin and GPR120 siRNA+insulin+9-PAHSA by t-test. All data are presented as mean±s.e.m. See also FIG. 57.
# For all cell culture experiments, FAHFAs were solubilized in DMSO at a concentration of 20 mM and further diluted in assay buffer or cell culture media to the working concentrations indicated for each assay. In all instances an equivalent volume of vehicle (DMSO) was added to control treatment groups.
# [2] = system: insulin-resistant high-fat fed mice; assay: Insulin tolerance test in HFD-fed mice; format: in vivo, mouse; conditions: for baseline glycemia: 2.5-3 hours after administration; for area above the insulin response curve / insulin sensitivity: ITT
# Description: Area under the curve (AUC), *p<0.05 compared to vehicle. […] Area above the curve (AAC). *p<0.05 compared to vehicle. […] Area under the curve (AUC). *p<0.05 compared to vehicle. FIG. 53D is a bar graph showing serum insulin levels 5 min post glucose challenge in chow-fed mice gavaged with 5-PAHSA or vehicle (glucose values shown in FIG. 53C). n=12-14 per group, *p<0.05 compared to vehicle by t-test. FIG. 53E is a bar graph showing serum GLP-1 levels 5 min post glucose challenge from chow-fed mice gavaged with 5-PAHSA or vehicle (glucose levels in FIG. 53C). n=12-14 per group, *p<0.05 compared to vehicle by t-test. FIG. 53F are bar graphs showing insulin secretion from primary human islets from two independent donors. Islets were incubated with low (2.5 mM) or high (20 mM) glucose ex vivo in the presence of 5-PAHSA (20 μM) or vehicle control. n=100 islets per condition, *p<0.05 compared to control 2.5 mM glucose, ^#p<0.05 compared to respective treatments at 2.5 mM glucose, ^$p<0.05 compared to control or diluents at 20 mM glucose by t-test. FIG. 53G are bar graphs showing active GLP-1 secretion from STC-1 cells in response to 5-PAHSA (5-P), 9-PAHSA (9P), […] (LA), GW9508 (GW) or vehicle control (DMSO). n=4 per group, *p<0.05 compared to vehicle by t-test. All data are mean±s.e.m. See also FIG. 56.
# STC-1 cells [3] = assay: ERK phosphorylation in STC-1 cells (immunoblot); format: cell-based; conditions: 15 minutes stimulation
# Description: For the experiments summarized in FIG. 40, STC-1 cells were incubated with 9-PAHSA, 5-PAHSA or 9-OAHSA at the indicated concentrations. Cells were harvested and lysed and proteins were separated by SDS PAGE and transferred onto nitrocellulose filters. The phosphorylation of ERK and the amount of total ERK was determined by immunoblotting with antibodies specific for total or phosphor-ERK. DMSO was the control. For ERK phosphorylation, cells were serum deprived overnight and stimulated with FAHFAs or vehicle as indicated for 15 minutes followed by lysis in RIPA buffer and analysis by SDS-PAGE
Structure (SMILES),Ca2+ flux from intracellular stores (STC-1 cells [1]),insulin-stimulated glucose transport (3T3-L1 adipocytes),baseline glycemia [2],area above the insulin response curve [2],insulin sensitivity [2],ERK phosphorylation (STC-1 cells [3]),glucose transport (3T3-L1 adipocytes; basal state)
CCCCCCCCCCCCCCCC(=O)OC(CCCCCCCCCCCCC)CCCC(=O)O (stereo not drawn) [5-PAHSA],induce Ca2+ flux from intracellular stores,enhanced insulin-induced glucose transport,lowered baseline glycemia,more than a doubling,improved insulin sensitivity,induce ERK phosphorylation,
"CCCCCCCCCCCCCCCC(=O)OC(CCCCCCCCC)CCCCCCCC(=O)O (stereo not drawn) [9-PAHSA, palmitoyl-9-hydroxystearic acid]",induce Ca2+ flux from intracellular stores,,lowered baseline glycemia,more than a doubling,improved insulin sensitivity,induce ERK phosphorylation,modestly increased glucose transport
